Results reported in ChEMBL document CHEMBL1817597, “Antifungal thiopeptide cyclothiazomycin B1 exhibits growth inhibition accompanying morphological changes via binding to fungal cell wall chitin” (Bioorg Med Chem, 2011).
Converted amounts (≈) assume the structure as drawn. The source made the active and inactive calls. No cut-off for these calls is given here.

What was measured:
Fusarium graminearum = experiment: Antimicrobial activity against Gibberella zeae NBRC 8850 at <6.55 uM after 24 hrs by broth microdilution method; format: functional, organism-based
Bacillus licheniformis = experiment: Antimicrobial activity against Bacillus licheniformis IFO 12107 after 24 hrs by broth microdilution method; format: functional, organism-based
Proteus vulgaris = experiment: Antimicrobial activity against Proteus vulgaris IFO 3851 after 24 hrs by broth microdilution method; format: functional, organism-based
Neurospora sitophila [1] = experiment: Antimicrobial activity against Neurospora sitophila DSM 1130 after 24 hrs by broth microdilution method; format: functional; details: DSM 1130, 24 h
Penicillium chrysogenum [2] = experiment: Antimicrobial activity against Penicillium chrysogenum IFO 4626 at <6.55 uM after 24 hrs by broth microdilution method; format: functional, organism-based
Fusarium oxysporum = experiment: Antimicrobial activity against Fusarium oxysporum NBRC 5942 at <6.55 uM after 24 hrs by broth microdilution method; format: functional, organism-based
Mucor mucedo [3] = experiment: Induction of morphological changes in Mucor mucedo IFO 7684 assessed as abnormal hyphae branching at MIC after 24 hrs by microscopic analysis; format: functional, organism-based
Fusarium fujikuroi = experiment: Antimicrobial activity against Gibberella fujikuroi NBRC 6349 after 24 hrs by broth microdilution method; format: functional; details: NBRC 6349, 24 h
Staphylococcus aureus [4] = experiment: Antimicrobial activity against Staphylococcus aureus NCTC 8530 after 24 hrs by broth microdilution method; format: functional, organism-based
Mucor mucedo [5] = experiment: Antimicrobial activity against Mucor mucedo IFO 7684 at <6.55 uM after 24 hrs by broth microdilution method; format: functional, organism-based
Fusarium avenaceum = experiment: Antimicrobial activity against Fusarium avenaceum NBRC 33237 after 24 hrs by broth microdilution method; format: functional; details: NBRC 33237, 24 h
[6] = Binding affinity to curdlan at 6.55 uM after 30 mins by HPLC analysis
Mucor javanicus = experiment: Antimicrobial activity against Mucor javanicus IFO 4569 after 24 hrs by broth microdilution method; format: functional; details: IFO 4569, 24 h
Neurospora sitophila [7] = experiment: Antimicrobial activity against Neurospora sitophila DSM 1130 at <6.55 uM after 24 hrs by broth microdilution method; format: functional
Aspergillus fumigatus = experiment: Antimicrobial activity against Aspergillus fumigatus IFO 5840 at <6.55 uM after 24 hrs by broth microdilution method; format: functional, organism-based
HL-60 = experiment: Cytotoxicity against human HL60 cells up to 65.5 uM after 24 hrs by Alamar blue assay; format: cell-based; details: hl-60, 24 h
Mucor mucedo [8] = experiment: Antimicrobial activity against Mucor mucedo IFO 7684 after 24 hrs by broth microdilution method in presence of 100 uM of PKA activator dbcAMP; format: functional; details: IFO 7684, 24 h
Mucor mucedo [9] = experiment: Induction of morphological changes in Mucor mucedo IFO 7684 assessed as thickening of hyphae at 0.026 uM after 24 hrs by microscopic analysis in presence of 100 uM of PKA activator dbcAMP; format: functional, organism-based
Mucor mucedo [10] = experiment: Effect on cell wall re-generation in Mucor mucedo IFO 7684 spheroplasts under hyperosmotic condition at 0.026 uM after 18 hrs by microscopic analysis; format: functional
Mucor mucedo [11] = experiment: Induction of morphological changes in Mucor mucedo IFO 7684 assessed as thickening of hyphae at MIC after 24 hrs by microscopic analysis; format: functional, organism-based
Mucor mucedo [12] = experiment: Inhibition of DNA synthesis in Mucor mucedo IFO 7684 assessed as [8-14C]-adenine uptake into acid-insoluble fractions at 0.13 uM after 25 mins by liquid scintillation counting; format: functional; details: IFO 7684, 25 min
[13] = Binding affinity to chitin at 6.55 uM after 30 mins by HPLC analysis
Staphylococcus aureus [14] = experiment: Antimicrobial activity against Staphylococcus aureus IFO 12732 after 24 hrs by broth microdilution method; format: functional, organism-based
Mucor mucedo [15] = experiment: Inhibition of RNA synthesis in Mucor mucedo IFO 7684 assessed as [8-14C]-adenine uptake into acid-insoluble fractions at 0.13 uM after 25 mins by liquid scintillation counting; format: functional, organism-based
Fusarium solani = experiment: Antimicrobial activity against Fusarium solani NBRC 8505 at <6.55 uM after 24 hrs by broth microdilution method; format: functional, organism-based
Penicillium chrysogenum [16] = experiment: Antimicrobial activity against Penicillium chrysogenum IFO 4626 after 24 hrs by broth microdilution method; format: functional; details: IFO 4626, 24 h
Mucor mucedo [17] = experiment: Binding affinity to cell wall polysaccharides in Mucor mucedo IFO 7684 at 6.55 uM after 30 mins by HPLC analysis
Saccharomyces cerevisiae = experiment: Antimicrobial activity against Saccharomyces cerevisiae IFO 0203 after 24 hrs by broth microdilution method; format: functional, organism-based
Mucor mucedo [18] = experiment: Antimicrobial activity against Mucor mucedo IFO 7684 after 24 hrs by broth microdilution method in presence of 100 uM of PKA inhibitor H8; format: functional; details: IFO 7684, 24 h
Rhizopus arrhizus = experiment: Antimicrobial activity against Rhizopus oryzae IFO 4766 after 24 hrs by broth microdilution method; format: functional; details: IFO 4766, 24 h
Aspergillus niger = experiment: Antimicrobial activity against Aspergillus niger ATCC 6275 after 24 hrs by broth microdilution method; format: functional; details: ATCC 6275, 24 h

SMILES: C=C1NC(=O)[C@H]2CSC(=N2)c2csc(n2)-c2ccc3c(n2)[C@H](C)NC(=O)[C@@H]2CCCN2C(=O)/C(=C/C)NC(=O)CNC(=O)[C@H](CCCNC(=N)N)NC(=O)C(C)(NC(=O)/C(=C/C)NC(=O)C2CSC(=N2)[C@H](CC(N)=O)NC3=O)SC[C@@H](C(=O)O)NC(=O)[C@H]2CSC(=N2)c2csc(n2)-c2csc1n2 [CYCLOTHIAZOMYCIN B1]
- Activity (Fusarium graminearum): inactive
- Activity (Bacillus licheniformis): inactive
- Activity (Proteus vulgaris): inactive
- MIC (Neurospora sitophila [1]): > 1000 µg/mL
- Activity (Penicillium chrysogenum [2]): inactive
- Activity (Fusarium oxysporum): inactive
- Activity (Mucor mucedo [3]): Active
- MIC (Fusarium fujikuroi): 0.25 µg/mL (≈ 0.164 µM)
- Activity (Staphylococcus aureus [4]): inactive
- Activity (Mucor mucedo [5]): inactive
- MIC (Fusarium avenaceum): 0.25 µg/mL (≈ 0.164 µM)
- Activity [6]: inactive
- MIC (Mucor javanicus): 0.078 µg/mL (≈ 0.051 µM)
- Activity (Neurospora sitophila [7]): inactive
- Activity (Aspergillus fumigatus): inactive
- Activity (HL-60): Non-toxic
- MIC (Mucor mucedo [8]): 0.013 µM
- Activity (Mucor mucedo [9]): Active
- Activity (Mucor mucedo [10]): inactive
- Activity (Mucor mucedo [11]): Active
- inhibition at 0.13 µM (Mucor mucedo [12]): 84%
- Activity [13]: Active
- Activity (Staphylococcus aureus [14]): inactive
- inhibition (Mucor mucedo [15]): inactive
- Activity (Fusarium solani): inactive
- MIC (Penicillium chrysogenum [16]): 0.63 µg/mL (≈ 0.412 µM)
- Activity (Mucor mucedo [17]): inactive
- Activity (Saccharomyces cerevisiae): inactive
- MIC (Mucor mucedo [18]): 0.013 µM
- MIC (Rhizopus arrhizus): > 1000 µg/mL
- MIC (Aspergillus niger): > 1000 µg/mL
